These are literature values, as cited in publication PMC9069326 (RSC Advances, 2019).

This data set concerns the target Gal-3 (Homo sapiens, UniProt P17931). To be noted: cited from earlier work.

pKd: −log10 of the molar value.

Sequence of Gal-3 (P17931 whole entry, species assumed): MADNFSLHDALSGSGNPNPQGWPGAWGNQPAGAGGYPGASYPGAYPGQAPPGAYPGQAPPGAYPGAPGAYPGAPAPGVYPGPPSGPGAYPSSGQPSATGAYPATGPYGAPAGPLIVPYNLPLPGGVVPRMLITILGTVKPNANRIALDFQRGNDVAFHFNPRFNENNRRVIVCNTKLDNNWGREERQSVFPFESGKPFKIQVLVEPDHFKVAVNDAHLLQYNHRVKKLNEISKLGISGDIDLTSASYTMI

For `O=C[C@H](O)[C@@H](O)[C@@H](O)[C@H](O)CO` [Gal, β-Galactose], the pKd is ~2.00.
Regarding Galβ1-4GlcNAc [LacNAc], the pKd was 4.15.

A word on the pKd: it is −log10 of the Kd, conventionally taken in molar units.
